Laboratory results as given in paper PMC9181938, “Fluorinated Analogues of Lepidilines A and C: Synthesis and Screening of Their Anticancer and Antiviral Activity” (Molecules, 2022).
Where two headings read alike, the source gives them in different places.

Key:
[1] = Cytotoxicity MTT assay (0.1–1000 µM), CC50; type: cell-based, Human; conditions: human, A549 cells, read-out: CC50 Cancer Cell Lines A549
[2] = Cytotoxicity MTT assay (0.1–1000 µM), CC50; type: cell-based, Cercopithecus aethiops; conditions: Cercopithecus aethiops, Vero cells, read-out: CC50 Normal Cell Lines Vero
[3] = Cytotoxicity MTT assay (0.1–1000 µM), CC50; type: cell-based, Macaca mulatta; conditions: Macaca mulatta, LLC-MK2 cells, LLC-MK2, MTT, 48 h; read-out: CC50 Normal Cell Lines LLC-MK2
[4] = Cytotoxicity MTT assay (0.1–1000 µM), CC50; type: cell-based, Human; conditions: human, MRC-5 cells, MRC-5, MTT, read-out: CC50 Normal Cell Lines MRC-5
[5] = tested on: Human herpesvirus 5 (HCMV); experiment: Antiviral activity assay (0.1–1000 µM), IC50, plaque reduction; type: cell-based; conditions: Human betaherpesvirus 5, 20 PFU/well
Experimental: (§1) Antiviral properties of compounds 1e–1g, 1e[PF6], 8a–8d, and 9a were assessed against five viruses: Human herpesvirus 1 (HSV-1, VR-539), Human parainfluenza virus type 3 (HPIV-3, VR-93), Human adenovirus 5 (AdV5, VR-5), Human herpesvirus 5 (HCMV, VR-977), and Encephalomyocarditis virus (EMCV, VR-1479). Viruses were purchased from the American Type Culture Collection (ATCC, Manassas, VA, USA).
(§2) All tested compounds were dissolved in DMSO (dimethyl sulfoxide, Sigma-Aldrich, Darmstadt, Germany) and then suspended in Minimum Essential Medium (MEM; Sigma-Aldrich, Darmstadt, Germany) supplemented with 2% heat-inactivated fetal bovine serum (FBS; Sigma-Aldrich, Darmstadt, Germany), 2 mM L-glutamine (Sigma-Aldrich, Darmstadt, Germany), and 100 units/mL penicillin G with […] streptomycin (Sigma-Aldrich, Darmstadt, Germany).
(§3) Investigated cells were propagated in Minimum Essential Medium (MEM; Sigma-Aldrich, Darmstadt, Germany) supplemented with 10% heat-inactivated fetal bovine serum (FBS; Sigma-Aldrich, Darmstadt, Germany) and 100 units/mL penicillin G with […] streptomycin (Sigma-Aldrich, Darmstadt, Germany). After reaching 80–90% confluency, cells were harvested with trypsin (Life Technologies, Warsaw, Poland) and seeded into 96-well microplates at 2 × 10^5 cells/mL after overnight incubation of cells at 37 °C in a humidified atmosphere containing 5% CO2.
(§4) The culture medium was removed from confluent cells grown in 96-well microplates, and the cells were inoculated with virus solutions in MEM supplemented with 2% FBS and antibiotics (HSV-1 MOI 0.005, 1000 virions/mL; HPIV-3 MOI 0.01, 2000 virions/mL; AdV5 MOI 0.005, 1000 virions/mL; EMCV 0.005, 1000 virions/mL; HCMV 20 PFU/well (plaque-forming units per well). After a 1-h (HSV-1, HPIV-3, AdV5, and EMCV) or 2-h adsorption period (HCMV), residual viral particles were removed, and infected cells were further incubated with MEM supplemented with 2% FBS containing compound concentrations in the range from 0.1 to 1000 µM [38]. All experiments were carried out in triplicate. The cell monolayers were incubated with the investigated compounds at 37 °C in a humidified atmosphere containing 5% CO2 until a cytopathic effect (CPE) was visible. Viral infection was evaluated by the MTT assay (as described previously) or plaque reduction assay. HCMV plaques were counted under an inverted microscope, Olympus IX73 (Olympus, Tokyo, Japan). Antiviral activity was expressed as the concentration required to reduce the number of viral plaques to 50% of the control (virus-infected but untreated).

[6] = tested on: Human adenovirus 5 (AdV5); experiment: Antiviral activity assay (0.1–1000 µM), IC50; type: cell-based; conditions: Human mastadenovirus C; AdV5, MOI 0.005; read-out: IC50 AdV5
Experimental: as §1, §2, §3, §4

[7] = tested on: Human herpesvirus 1 (HSV-1); experiment: Antiviral activity assay (0.1–1000 µM), IC50; type: cell-based; conditions: Human alphaherpesvirus 1; HSV-1, MOI 0.005
Experimental: as §1, §2, §3, §4

[8] = tested on: Encephalomyocarditis virus (EMCV); experiment: Antiviral activity assay (0.1–1000 µM), IC50; type: cell-based; conditions: Cardiovirus A, MOI 0.005, read-out: IC50 EMCV
Experimental: as §1, §2, §3, §4

[9] = tested on: Human parainfluenza virus type 3 (HPIV-3); experiment: Antiviral activity assay (0.1–1000 µM), IC50; type: cell-based; conditions: Human respirovirus 3, HPIV-3, MOI 0.01; read-out: IC50 HPIV-3
Experimental: as §1, §2, §3, §4

[10] = Cytotoxicity MTT assay (0.1–1000 µM), CC50; type: cell-based, Human; conditions: human, HepG2 cells, read-out: CC50 Cancer Cell Lines HepG2
[11] = Cytotoxicity MTT assay (0.1–1000 µM), CC50; type: cell-based, Mus musculus; conditions: Mus musculus, NCTC clone 929 cells, NCTC clone 929, MTT, 48 h; read-out: CC50 Normal Cell Lines NCTC Clone 929
[12] = Cytotoxicity MTT assay (0.1–1000 µM), CC50; type: cell-based, Human; conditions: human, HeLa cells, MTT, 48 h, read-out: CC50 Cancer Cell Lines HeLa
LLC-MK2 cells = experiment: Cytotoxicity MTT assay (0.1–1000 µM), CC50; type: cell-based, Macaca mulatta; conditions: LLC-MK2, MTT, 48 h; read-out: CC50 Normal Cell Lines LLC-MK2

IC50 [5] [µM]	IC50 [6] [µM]	IC50 [7] [µM]	IC50 [8] [µM]	IC50 [9] [µM]	melting point	SMILES	CC50 at 48 h [1] [µM]	CC50 at 48 h [2] [µM]	CC50 at 48 h [3] [µM]	CC50 at 48 h [4] [µM]	CC50 at 48 h [10] [µM]	CC50 at 48 h [11] [µM]	CC50 at 48 h [12] [µM]	CC50 (LLC-MK2 cells) [µM]
> 24.3	> 7.33	> 143	> 90.7	> 257	108 to 110 °C	Cc1c(C)[n+](OCc2ccccc2)cn1Cc1cccc(OC(F)(F)F)c1.[Br-] [Compound 8b, 3-Benzyloxy-4,5-dimethyl-1-[3-(trifluoromethoxy)benzyl]imidazolium bromide]	5.5 ± 0.5	143 ± 2.89	257 ± 6.77	24.3 ± 2.08	163 ± 6.43	90.7 ± 4.16	7.33 ± 0.76	–
> 45.7	> 16	> 53.7	> 28.5	> 55	123 to 125 °C	Cc1c(C)[n+](OCc2ccccc2)cn1Cc1ccccc1C(F)(F)F.[Br-] [Compound 8c, 3-Benzyloxy-4,5-dimethyl-1-(2-(trifluoromethyl)benzyl)imidazolium bromide]	7.37 ± 0.32	53.7 ± 1.53	55 ± 1	45.7 ± 3.79	95 ± 1	28.5 ± 0.5	16 ± 1	–
> 59.7	> 5.5	> 229	> 283	> 7.5	180 to 182 °C (dec.)	Cc1c(C)[n+](OCc2ccccc2)cn1Cc1ccc(C(F)(F)F)cc1.[Br-] [Compound 8d, 3-Benzyloxy-4,5-dimethyl-1-[4-(trifluoromethyl)benzyl]imidazolium bromide]	5.07 ± 0.12	229 ± 9.02	7.5 ± 1	59.7 ± 2.52	322 ± 5.77	283 ± 10.4	5.5 ± 0.5	–
> 0.09	> 0.019	> 0.347	> 3.75	> 0.04	216 to 217 °C	FC(F)(F)c1cccc(C[n+]2cn(Cc3ccccc3)c(-c3ccccc3)c2-c2ccccc2)c1.[Br-] [Compound 9a, 1-Benzyl-4,5-diphenyl-3-[3-(trifluoromethyl)benzyl]imidazolium bromide]	0.035 ± 0.005	–	0.04 to 0.347	–	6.9 ± 0.361	3.75 ± 0.087	0.019 ± 0.001	0.04 ± 0.002
